Earlier results on 1 molecule are cited in US20050042289A1, “Tablets and methods for modified release of hydrophylic and other active agents” (Yamanouchi Pharma Technologies, Inc., priority 2003, published 2005).

Counter-ions that a name gives are not always drawn. Like-named read-outs stand apart in the source and are kept apart here.

For the series the following is noted: in water at 25° C., hemihydrate.

As for `CC1OC2(CS1)CN1CCC2CC1` (racemic) [SNI-2011, (+/−)-cis-2-methylspiro [1,3-oxathiolane-5,3′-quinuclidine] hydrochloride, hemihydrate], the water solubility reads like this: (listed as Cevimeline hydrochloride) 766 mg/mL; (listed as methylspiro hydrochloride salt) about 800 mg/mL; (hydrochloride) “about 1,400 mg/ml”.
